Laboratory results taken from US10578610B2, “Peptide regulators of mitochondrial fusion and methods of use” (priority 2016, dated 2020).
Ends that are not written are not given here.

Tests used:
[1] = target: T1, hMfn2 (Homo sapiens, UniProt O95140); test: Mfn2 FRET assay in live cells; assay type: cell-based; conditions: 5 μM TAT-minipeptide, data not shown
T1 construct: expressed in transfected cells; host or cells: FMK 293T cells (so in the source), Lipofectamine-transfected, pcDNA3.1
T1 sequence (O95140 1-757): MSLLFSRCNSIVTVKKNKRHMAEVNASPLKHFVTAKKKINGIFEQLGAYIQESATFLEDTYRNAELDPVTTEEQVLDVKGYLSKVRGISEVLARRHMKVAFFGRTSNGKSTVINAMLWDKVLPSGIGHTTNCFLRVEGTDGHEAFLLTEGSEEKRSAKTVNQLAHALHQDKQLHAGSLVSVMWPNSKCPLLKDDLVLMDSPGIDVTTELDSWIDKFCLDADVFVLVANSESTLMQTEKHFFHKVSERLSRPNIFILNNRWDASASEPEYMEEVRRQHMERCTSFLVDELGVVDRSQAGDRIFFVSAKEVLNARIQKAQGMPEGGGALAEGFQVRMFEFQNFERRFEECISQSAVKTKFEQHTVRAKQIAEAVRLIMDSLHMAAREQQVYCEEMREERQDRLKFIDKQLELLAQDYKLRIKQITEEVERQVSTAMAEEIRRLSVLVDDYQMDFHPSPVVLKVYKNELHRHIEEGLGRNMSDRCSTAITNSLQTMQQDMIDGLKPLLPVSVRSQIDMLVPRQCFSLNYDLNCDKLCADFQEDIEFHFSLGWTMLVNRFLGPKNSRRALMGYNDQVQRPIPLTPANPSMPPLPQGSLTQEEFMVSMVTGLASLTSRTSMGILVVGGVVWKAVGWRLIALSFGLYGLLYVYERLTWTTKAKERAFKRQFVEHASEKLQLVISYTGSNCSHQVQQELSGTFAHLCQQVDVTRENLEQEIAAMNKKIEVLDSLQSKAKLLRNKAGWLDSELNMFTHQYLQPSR
Protocol: mCerulean1 and mVenus were cloned onto the 5′ and 3′ ends of hMfn2 cDNA in pcDNA3.1 and confirmed by DNA sequencing. Lipofectamine-transfected biosensor-expressing FMK 293T cells were imaged on an Olympus IX81 ZDC inverted microscope under 40× magnification. mCerulean was excited at 436 nm with emission at 480 nm. mVenus was excited at 500 nm with emission at 535 nm. FRET was imaged with excitation at 436 nm and emission at 535 nm. Studies were performed after adding GTP[…]S (1 mM, Sigma-Aldrich) to suppress Mfn2 GTPase activity. Live cell FRET data were acquired as described (Spiering et al., 2013, Methods Cell Biol, 114:593-609) every 60 seconds for 15 minutes before and 90 minutes after addition of TAT-minipeptides (5 µM).

[2] = system: mice subjected to cerebral ischemia; test: Temporary middle cerebral artery (MCA) occlusion followed by reperfusion; assay type: in vivo
Protocol: Studies were done to study the effects of TetherX-1 (SEQ ID NO:24) administration on cerebral tissue damage in mice in which ischemia was induced. In this blinded and placebo-controlled studies, 40 mice were subjected to temporary (40 minutes) middle cerebral artery (MCA) occlusion followed by reperfusion for 24 hours. Brains were removed and analyzed for direct and indirect infarct area and volume. […] Moreover, TetherX-1 administration reduced cerebral deficit (FIG. 20) and cerebral swelling (FIG. 21).

[3] = system: cultured rat motor neurons infected with adeno-Mfn2 K109A; test: Motor neurons infected with adeno-Mfn2 K109A; assay type: cell-based; conditions: 1 μM for 24 hours vs TAT control
Protocol: The efficacy of TAT-367-384Gly to correct mitochondrial pathology induced by a GTPase-defective Mfn2 mutant was examined in the CMT2A-relevant cell type, motor neurons. Motor neurons were isolated from E17 Sprague-Dawley rats and cultured as described in Wang et al., 2013, Hum Mol Genet 22:4706-4719. After 10 days in culture, neurons were infected twice, 8 hours apart, with 50 MOI of adenoviral WT-Mfn2 or K109A Mfn2 and treated with 1 μM TAT-367-384 Gly or control TAT peptide for 24 hours. Mitochondria of formalin-fixed nerons were labeled with anti-TOM20 (Santa Cruz Biotechnology). Neurons were stained with Hoechst 33342. Laser confocal imaging using a 63× oil objective was used to identify isolated mitochondria for determination of aspect ratio.
Representative anti-TOM20/Hoechst images of formalin-fixed cultured neurons infected with adeno-Mfn2K109A (FIG. 15A) or adeno-WT Mfn2 (FIG. 15B) and treated for 24 h with 1 μM TAT control (Ctrl) or TAT-367-384Gly minipeptide. Scale bars are 10 microns. N=20-23 per treatment group; *=P<0.05 vs Ctrl (Student's t-test).

[4] = system: hippocampal and cortical neurons carrying Mfn2 T105M fl/st; test: Hippocampal and cortical neurons with induced Mfn2 T105M; assay type: cell-based, mouse; conditions: Mfn2 T105M induced by adeno-Cre; 1 μM for 24 hours
Protocol: Finally, to test the efficacy of fusion promotion by conformational manipulation in a model of a naturally-occurring human CMT2A mutation, hippocampal and cortical neurons were cultured from mouse pups carrying the conditional Mfn2 T105M fl/st expression allele.
Hippocampal and cortical neurons were prepared from individual P0-P1 mouse pups using a modification of methods described for rat neuronal culture (Mennerick et al., 1995, J Neurophysiol, 73:320-332). Mouse pups were genotyped after the fact to determine presence or absence of the MFN2*T105M transgene; neurons derived from mice lacking the transgene were designated as normal controls. […] Immunoblot of Mfn2 expression in T105M fl/st cortical neurons 72 h after adeno-Cre or adeno-β-gal (Ctrl) is shown in FIG. 16B with quantitative data to the right (n=4). […]
Merged live confocal images of cultured neurons without (no Cre) and with (+Cre) Mfn2 T105M induction, and in Mfn2 T105M-induced neurons 24 h after addition of 1 μM TAT-367-384Gly are shown in FIG. 16C. […] Quantitative data are provided in FIG. 16E; each point is result from one of 3 independently-established Mfn2 T105M neuronal cultures, each with 3 biological replicates of ˜20 neurons. *=P<0.01 vs no Cre; #=P<0.01 vs T105M+Cre.

[5] = 3 mg/kg intravenously 1 hour before ischemia and immediately prior to reperfusion, vs vehicle
[6] = 3 mg/kg intravenously, vs vehicle

Sequence | FRET of hMfn2 tagged with mCerulean1 and mVenus [1] | direct infarct area ([2]; 3 mg/kg intravenously 1 hour before ischemia and immediately prior to reperfusion, 40 minutes MCA occlusion, reperfusion 24 hours, vs vehicle (water)) | direct infarct volume [2, 5] | indirect infarct area [2, 5] | indirect infarct volume [2, 5] | cerebral deficit [2, 6] | cerebral swelling [2, 6] | mitochondrial fragmentation (aspect ratio) [3] | neuronal mitochondrial dysmorphology with fragmentation, partial depolarization and clumping [4]
QDRLKFIDKQGELLAQDYKLRGGYGRKKRRQRRR [TAT-398-418Gly] | increased | decrease | decrease | decrease | decrease | reduced | reduced |  | 
QIAEAVRGIMDSLHMAARGGYGRKKRRQRRR [TAT-367-384Gly] | had the opposite effect |  |  |  |  |  |  | fully normalized | largely reversed these abnormalities
